{"source": "paper PMC9646836", "about": "“Tetrahydroquinolinone derivatives exert antiproliferative effect on lung cancer cells through apoptosis induction” (Scientific Reports, 2022)", "key": {"HCT-116": {"tested_on": "HCT-116", "test": "MTT cell viability assay, HCT-116", "format": "cell-based, human", "conditions": "mean ± SD, n = 3", "description": "(§1) All new tetrahydroquinoline derivatives were assessed for cytotoxicity on a broad panel of cancer and normal cell lines, using the MTT assay. The half-inhibitory growth inhibitory concentration (IC50) values of each compound were calculated after 72 h of treatment and presented in Table 1. […] In this assay, the IC50 value of 5-FU and ETP was recorded as a positive control.\n(§2) Non-small cell lung cancer cells A549 (CCL-185), breast cancer cells MCF-7 ([…]), hepatocarcinoma cells HepG2 ([…]), normal kidney cells HEK293 (CRL-1573), and osteosarcoma cells U-2 OS (HTB-96) were obtained from the American Type Culture Collection. HCT-116 cell line was kindly provided by prof. Bert Vogelstein (Johns Hopkins University, Howard Hughes Medical Institute, USA). The obtained A549 and MCF-7 cells were cultured in RPMI-1640 medium, HepG2 cells in Minimum Essential Medium Eagle medium, HEK-293 cells in Dulbecco’s Modified Eagle’s medium, and U-2 OS and HCT-116 cells in McCoy’s […] medium. All culture media were supplemented with 10% fetal bovine serum, 2 mM L-glutamine, and antibiotics (penicillin 62.6 µg/ml and streptomycin 40 µg/ml; Sigma-Aldrich). Both cancer and normal cells were cultured at 37 °C under a humidified atmosphere with 5% or 10% CO2 and routinely screened for Mycoplasma contamination. All materials and reagents were obtained from Corning unless stated otherwise.\n(§3) The cytotoxic effect of the synthesized compounds was assessed by the MTT (4,5-dimethylthiazol-2-yl-2,5-diphenyltetrazoliumbromide; Sigma-Aldrich) assay. Briefly, the cells were seeded into 96-well transparent flat-bottom plates and allowed to attach overnight. On the next day, the cells were treated with compounds in the range of 0–50 µM for 72 h. Dimethyl sulfoxide (DMSO; Merck) and 5-fluorouracil (5-FU; Sigma-Aldrich) were used as a reference. After exposure to the compounds, 20 μl of the MTT solution at a concentration of 4 mg/ml was added to each well, and the plates were incubated again for 2–3 h at 37 °C. Next, the media in the wells was replaced with 100 μl DMSO to solubilize the formazan crystals. The absorbance was measured at 540 nm using an ASYS UVM340 microplate reader (Biochrom Ltd.). The IC50 value of the compounds was calculated using GraphPad Prism 9 software, based on the curves plotted with survival as a function of dose, averaged from three independent experiments."}, "A549 cells [1]": {"tested_on": "A549 cells", "test": "Apoptosis assay (Annexin V/7-AAD, flow cytometry)", "format": "cell-based, human", "conditions": "A549, IC50 concentration", "description": "To further explain the mechanism by which 4a induced cell death in cancer cells, a flow cytometric analysis was performed by dual-staining the cells with 7-aminoactinomycin D (7-AAD) and Annexin V-fluorescein isothiocyanate (FITC). Annexin-V is a Ca^2+-dependent protein with potent affinity to phosphatidylserine. During early apoptosis, cells lose plasma membrane asymmetry through, for example, the externalization of phosphatidylserine. Once exposed to the outside of the cell surface, phosphatidylserine can be recognized by Annexin-V, and quantified. On the other hand, 7-AAD is a dye that cannot penetrate the intact cell membrane, and allows differentiating between necrotic and late apoptotic cells from living and early apoptotic cells. […] Treatment with the tested compound for 24 h caused 3.9-fold augmentation in apoptosis [early: 7-AAD (–), Annexin V-FITC (+); late: 7-AAD (+), Annexin V-FITC (+)] in comparison to the vehicle.\nCells were seeded in a 5-cm^2 dish at a density of 15 × 10^5 cells per dish and allowed to attach overnight at 37 °C. Then, compounds at IC50 concentrations were added to the medium. After 6, 24, and 48 h, the cells were harvested and washed with PBS. Subsequently, the cells were resuspended in the binding buffer and stained with Annexin V Alexa Fluor™ 488 conjugate (#A13201; Thermo Fisher Scientific) for the apoptosis assay and with CellEvent™ Caspase-3/7 Green Flow Cytometry Assay Kit (#C10427; Thermo Fisher Scientific) for the activation of caspase-3/7, as per the manufacturer’s instructions. After incubation, the samples were immediately analyzed using a Guava EasyCyte 8 cell sorter (Merck Millipore) and FlowJo software v10. Each experiment was repeated three times."}, "HEK293": {"tested_on": "HEK293", "test": "MTT cell viability assay, HEK293 normal kidney cells", "format": "cell-based, human", "description": "as §1, §2, §3"}, "HepG2": {"tested_on": "HepG2", "test": "MTT cell viability assay, HepG2", "format": "cell-based", "conditions": "Homo sapiens, HepG2, 72 h, mean ± SD, n = 3", "description": "as §1, §2, §3"}, "[2]": {"tested_on": "apoptosis-related proteins in A549 cells", "test": "Western blotting of apoptosis-related proteins", "format": "cell-based, human", "description": "The expression of apoptosis-related proteins was determined by Western blotting. Briefly, A549 cells were treated with compound 4a at its IC50 concentration for 6, 24, and 48 h. The cells treated with 1% v/v DMSO served as the negative control. The total protein content was extracted from the cells using the NP-40 cell lysis buffer (10 mM Tris–HCl pH 7.4, 10 mM NaCl, 3 mM MgCl2, 0.5% Nonidet P-40, cOmplete Mini EDTA-free Protease Inhibitor Cocktail). Then, 30 µg of protein extract was separated by 10% sodium dodecyl sulfate–polyacrylamide gel electrophoresis, and the separated proteins were transferred to microporous polyvinylidene difluoride membranes (Bio-Rad). The membranes were blocked with 5% bovine serum albumin in tris-buffered saline-Tween 20 (TBST) buffer (0.2 M Tris-base, 0.137 M NaCl, 0.1% Tween 20) for 1 h at RT, and incubated overnight with primary antibodies at 4 °C. The blots were washed three times with TBST and incubated with appropriate peroxidase-conjugated secondary antibodies for 1 h at RT. Then, the blots were washed in TBST for 30 min and developed using an enhanced chemiluminescence detection reagent kit (Thermo Fisher Scientific) and a ChemiDoc XRS + Imaging System (Bio-Rad). All materials and reagents were obtained from Sigma-Aldrich unless stated otherwise."}, "A549 cells [3]": {"tested_on": "A549 cells", "test": "Colony formation assay", "format": "cell-based, human", "conditions": "A549, 24 h pretreatment, 9 days culture, vs DMSO-treated control", "description": "HCT-116 and A549 cells were seeded into six-well plates at a density of 500 cells per well and allowed to attach overnight. On the next day, the cells were pretreated with compound 4a at different concentrations or with 1% v/v DMSO for 24 h. After incubation, the cells were washed and cultured for 9 days. Next, the cells were fixed with methanol for 20 min and stained with 0.5% crystal violet (Sigma-Aldrich). Finally, the plates were dried overnight and imaged using a UVITEC Cambridge imaging system. Quantification was performed with ImageJ software. The surviving fraction was calculated as previously described. Each experiment was repeated three times."}, "[4]": {"conditions": "A549, IC50 concentration, 6, 24, 48 h"}}, "data": [{"smiles": "O=c1[nH]c2c(c(-c3ccccc3)c1Cc1cccc3ccccc13)CCCC2", "note": "[Compound 4a, 3-(1-naphthylmethyl)-4-phenyl-5,6,7,8-tetrahydro-1H-quinolin-2-one]", "values": [{"measurement": "IC50", "setting": "HCT-116; 72 h", "result": "12.2 ± 1.61", "unit": "µM"}, {"measurement": "IC50", "setting": "HCT-116; Homo sapiens, HCT-116, 72 h", "result": "~13", "unit": "µM"}, {"measurement": "increase in the fraction of early-apoptotic cells [7-AAD (–), Annexin V-FITC (+)]", "setting": "A549 cells [1]; 6 h, vs DMSO control", "result": "14.03 ± 1.74", "unit": "%"}, {"measurement": "augmentation in apoptosis (early + late)", "setting": "A549 cells [1]; 24 h, vs vehicle", "result": 3.9, "unit": "fold"}, {"measurement": "percentage of apoptotic cells", "setting": "A549 cells [1]; 48 h", "result": "significant increase"}, {"measurement": "IC50", "setting": "HEK293; Homo sapiens, HEK293, MTT, 72 h, normal kidney cells, mean ± SD, n = 3", "result": "49 ± 2.21", "unit": "µM"}, {"measurement": "suppressive effect on human normal HEK293 kidney cells", "setting": "HEK293; tested concentrations, compared to A549 and HCT-116", "result": "almost no suppressive effect"}, {"measurement": "IC50", "setting": "HepG2", "result": "> 50", "unit": "µM"}, {"measurement": "PARP-1 band", "setting": "[2]; [4]", "result": "proteolytic cleavage"}, {"measurement": "caspase-3, caspase-8, and caspase-9", "setting": "[2]; [4]", "result": "cleaved into their corresponding catalytically active forms"}, {"measurement": "expression of BAD protein", "setting": "[2]; [4]", "result": "higher than that in the control group"}, {"measurement": "expression of BAX protein", "setting": "[2]; [4]", "result": "higher than that in the control group"}, {"measurement": "expression of BCL-2 protein", "setting": "[2]; [4]", "result": "significantly decreased"}, {"measurement": "expression of BID", "setting": "[2]; [4]", "result": "slightly activated"}, {"measurement": "expression of AIF", "setting": "[2]; A549, IC50 concentration, vs DMSO-treated control", "result": "remained unchanged"}, {"measurement": "number of observed colonies", "setting": "A549 cells [3]", "result": "significantly decreased"}]}]}
